In data set [1] the test system is cortical α1-adrenoceptors. The note with it: prazosin 5 mg/kg; cited from earlier work.
The test system of data set [2] is Swiss Webster male mice. Put plainly: Repeated open space forced swim (RFS) test. The note with it: for overall effect of antagonist pretreatment on distance swum / overall effect of antagonist pretreatment on immobility: prazosin 5 mg/kg or atipamezole 0.5 mg/kg i.p.; for distance swum versus vehicle / immobility versus vehicle: acute ivt. 6FNE or DEX.
Protocol: (§1) In experiment on chronic administration, a daily dose of 0.5 mg/kg in the same vehicle was administered for 11 d.
(§2) Infusion procedure. All experiments were performed between 1000 and 1400 hr. […] A total of 350 n1 of solution was infused at 100 nl/min over a 3.5 min period with the cannula remaining in place for 30 seconds after infusion. The animal was then subjected to the behavioral tests described below making the interval between the start of infusion and start of behavioral test 4.5-5 min. […] All drugs were prepared freshly each day in saline.
In this procedure, mice are swum for 15-20 min/d for 4 d in rat tub cages (24×43×23 cm, w×h×l) filled with 13 cm high luke-warm water (32-34° C.) and thereafter once or twice a week. […] In the present experiment, the animals were matched on immobility level of the 4th swim into vehicle and drug groups and infused ivt. just prior to the 5th swim. Groups given i.p. injections were dosed initially 5 min after the 4th swim and finally 30 min prior to the 5th swim. Discs were rated as above on immobility and distance swum (number of quadrants entered).
For data set [3], the system named is Fos expression in LC, PVH, lateral septal nucleus and NAC. Put plainly: Fos immunohistochemistry in stress- and motivation-related brain regions. The format is in vivo, mouse. The note with it: 6FNE 3 nmoles ivt. The method, then: At 70 min after drug infusion all animals were deeply anesthetized with a combination of isoflurane and urethane (2.2 g/kg, i.p.) and perfused intracardially with 4% paraformaldehyde for subsequent immunohistochemistry and histological examination of the cannula tip with respect to the 4th ventricle.
Immunohistochemistry: Methods used for single and double-label Fos and Fos+tyrosine hydroxylase immunohistochemistry have been described in detail elsewhere (Stone, et al., Brain Research (2009) 1291:21-31). In brief, at 70 min after drug infusion deeply anesthetized (isoflurane plus urethane, 2.2 g/kg) mice were perfused intracardially with saline (25 ml) and 4% paraformaldehyde (45 ml), and the sucrose-treated brains were sectioned at 35 p and stained either singly for Fos (PVH, lateral septal nucleus, shell of nucleus accumbens (NAC)) or doubly for Fos and tyrosine hydroxylase (LC). Rabbit anti-fos (Oncogene Science 1:20,000) and chicken anti-tyrosine hydroxylase (Novus Biologicals, 1:5,000) were primary antibodies. Single-label staining involved nickel intensified-diaminobenzidine localization of the secondary biotinylated antibody and avidin-biotin-peroxidase complex. Double-label staining involved the use of Alexa-488 labeled secondary anti-rabbit and Alexa-594 labeled secondary anti-chicken antibodies. […] In all sections, to preclude biasing in the placement of counting frames, large frames comprising the total two dimensional extent of the target structures were counted for every Fos-positive cell by ImageJ. Double-labeled LC cells were defined as those having a fluorescently labeled cytoplasm (TH) and nucleus (Fos) greater than twice background fluorescence.

For data set [4] the following is noted: in vivo; cited from earlier work.
Data set [5] relates to Swiss Webster male mice. Put plainly: LPS model of depression (anhedonia). Format: in vivo, mouse. As for the experimental part:
1LPS model of depression (anhedonia): A modification of the Frenois et al (2007) model of LPS-induced anhedonia in the mouse was used to obtain a non-motoric index of depressed behavior. In this model, trained mice show a marked decrease in preference for a sweet solution 24-48 h after a systemic dose of LPS (830 μg/kg, i.p.), a time when they have recovered from the sickness behavior and anorexia caused by the acute effects of the toxin. For the model, the animals were first implanted with 4th ventricular cannulas as above and, during the recovery period, trained to drink diluted sweetened condensed milk solution (Magnolia 1:3 v:v milk:tap water) by 15 min presentations every other day for 7-10 d. […] Animals given i.p. injections were dosed 14, 12 and 0.5 h prior to the last test.

For data set [6], the system named is Swiss Webster male mice. Put plainly: Open field motor activity after ivt. infusion. The format is in vivo, mouse. The note with it: 15 min post infusion; 6FNE 3 nmoles ivt. As for the experimental part:
Open field motor activity: Implanted mice were placed singly in an open field (46×46×33 cm clear Plexiglas) and permitted to explore freely and habituate for 60 min. The animals were then either left undisturbed in the field or removed and infused with either vehicle or 6FNE (3 nmoles) and replaced in the field for a further 15 min. For comparative purposes a further group of implanted animals, similarly habituated to the field, was given an i.p. injection of d-amphetamine (5 mg/kg) prior to the final 15 min exposure. Movement in the field was videorecorded and was subsequently rated blind for the number of quadrants entered as well as the amount of time spent not touching the walls (“time in the center of the field”).

Data set [7] concerns Fos expression in LC, PVH, lateral septal nucleus and NAC. The note with it: stimulation or blockade of LC α1-receptors (Stone et al. 2011); cited from earlier work.
In data set [8] the test system is Swiss Webster male mice. Kind of data set: Tail suspension test. The note with it: for immobility, % vehicle control: 6FNE ivt. 3 nmoles; for immobility, % vehicle control / immobility versus vehicle: DMI subacute i.p. 10 mg/kg; for immobility versus vehicle: acute ivt. 6FNE or DEX. The format is in vivo, mouse.
Protocol: as §1, §2
Tail suspension test: The procedure of Stem, et al., Psychopharmacology 1985; 85: 367-370 was used. Immediately following intraventricular infusion or 30 min after the third i.p. injection, the animals were taped by the tail 72 cm above a padded platform for 6 min during which time they were videorecorded. Disks were subsequently rated blind as above for times immobile during the last 4 min of the test.
For a further data set, the system named is brain α-adrenoceptors. The note with it: cited from earlier work.
The subject of data set [9] is Swiss Webster male mice. Kind of data set: Acute forced swim test (Porsolt). The format is in vivo, mouse. The note with it: for immobility versus vehicle: second swim, 6FNE ivt. peak dose 3 nmoles, DMI subacute i.p. 10 mg/kg.
Protocol: A total of 420 Swiss Webster male mice (Taconic), 8-10 weeks old, were subjects. The animals were housed singly with nesting material for 5 d prior to surgery in standard size polycarbonate mouse cages (12.5×17×28 cm) at a room temperature of 22±1° C. under a 12 hr light/dark cycle (lights on 0500 hr). Food and water were available ad libitum.
Surgery: Mice, anesthetized with pentobarbital (70 mg/kg), were implanted stereotaxically with 26 ga cannula guides in the fourth cerebral ventricle (−5.9 mm to Bregma, 1 mm lateral, 3.9 mm ventral to skull surface) as described previously (Stone, et al., Brain Research (2009) 1291:21-31). All animals were given 10 days for recovery prior to infusions and behavioral testing.
as §2
Forced swim test: Separate groups of animals were used for each of the following behavioral tests. A modification of the Porsolt procedure for mice was used for the forced swim test (Porsolt, et al., Arch.int.Pharmacodyn.Ther. (1977) 229:327-336). The animals were given 2 videorecorded swims 24 hr apart in a 20 cm dia cylinder of 13 cm deep 25° C. water. The first swim was 15 min and the second 5 min. Prior to the second swim, the mice were matched on immobility times of the first swim and randomly assigned to ivt. vehicle or drug groups. Ivt. drugs were infused immediately before the second swim. […] Alternately, the drugs were administered ip 15 min prior to the test. […]
In data set [10] the test system is Swiss Webster male mice. Kind of data set: Observation for sedation and signs of toxicity. The format is in vivo, mouse. The note with it: intracerebral 6FNE or peripheral dp6FNE, range of behavioral tests. An excerpt:
Sedation interferes with behavioral performance and is therefore a detrimental side effect to the treatment of major depressive illness in humans.
Although dp6FNE was designed to be a temporary treatment, it was of interest to determine how long it would remain effective if given repeatedly.

For data set [11], the system named is mice. The note with it: given chronically in the drinking water; cited from earlier work.
The next data set has as its system handling-stressed mice. Put plainly: Home cage activity after handling and injection stress. Format: in vivo, mouse. The note with it: acute i.p. dp6FNE 1 mg/kg in the presence of phentolamine; cirazoline 0.1 mg/kg; FIG. 3. As for the experimental part:
FIG. 3 depicts the effect of acute i.p. dp6FNE (1 mg/kg) or cirazoline (0.1 mg/kg), (both N=1), on home cage activity in terms of rearing and ambulation, Veh (N=12).
It is known that peripheral administration of α1-agonists without phentolamine impairs exploratory behavior in the open field (Yang, et al., J Pharmacol exp Ther 1990; 255: 1064-1070).

Data set [12] has as its system mice. The note with it: months of chronic treatment (Doze et al. 2009); cited from earlier work.
Data set [13] relates to mice. The note with it: months of chronic treatment (Doze et al. 2009); cited from earlier work. The source holds these as a separate data set.
For data set [14], the system named is α2-adrenoceptors. The note with it: cited from earlier work.
For data set [15], the system named is α2-adrenoceptors. The note with it: atipamezole 0.5 mg/kg; cited from earlier work.
The mark [16] stands for this setting: overall effect across depression tests.
Where [17] appears, read: 5th swim, 6FNE ivt. peak dose, DMI subacute i.p. 10 mg/kg.
[18] abbreviates: 5th swim, DMI subacute i.p. 10 mg/kg.
[19] abbreviates: 5th swim, DMI subacute i.p. 10 mg/kg, 10 mg/kg.

“Also recorded” adds a separate entry of the source. Where two headings read alike, the source gives them in different places.

Regarding `COc1cc2nc(N3CCN(C(=O)c4ccco4)CC3)nc(N)c2cc1OC` [prazosin], in data set [1], the “block of cortical α1-adrenoceptors by ex vivo binding” value is given as 30%. Moreover, in the data set with Swiss Webster male mice [2], the “overall effect of antagonist pretreatment on distance swum” value was “significant overall decrease of distance swum” and the “overall effect of antagonist pretreatment on immobility” value was “significant overall increase of immobility”. Besides, the “effect of antagonist alone on TST or RFS measures” value in the data set with Swiss Webster male mice [2] (prazosin alone 0.2 mg/kg) is “did not affect these measures”.
Consider `NCC(O)c1cc(O)c(O)cc1F` (stereo not shown) [6FNE, 6-fluoronorepinephrine], for which the “Fos expression in LC” value in data set [3] (setting [16]) is “significant overall reduction”. In addition, in [3] (setting [16]), the “Fos expression in PVH” value was “significant overall reduction”. For the same compound, the “Fos expression in lateral septal nucleus” value in [3] (p<0.05) is listed as “overall increase”. Also, the “Fos expression in NAC” value in [3] (p<0.1) was “overall increase”. For the same compound, the “passage of the blood brain barrier / uptake by the brain” value in data set [4] is given as “does not pass the blood brain barrier”. Also, the sucrose preference result in the data set with Swiss Webster male mice [5] (acute ivt. 6FNE 48 h after LPS 830 μg/kg i.p.) is on record as “rescued by 6FNE”. Further, the sucrose intake entry in the data set with Swiss Webster male mice [5] (acute ivt. 6FNE in LPS-pretreated animals) is given as “inverted-U-shaped increase”. Moreover, the “time in the center of the field” value in the data set on Swiss Webster male mice [6] was “restored this behavior back to the level of the non-handled controls; also recorded: complete rescue”. The total quadrants entered entry in the data set on Swiss Webster male mice [6] was “no change in activity compared to the non-handled animals; also recorded: completely rescued the activity”. Besides, the “neural activity of the LC measured from c-Fos expression” value in data set [7] is on record as “virtually complete cessation of the neural activity”. For the same compound, the results for the “immobility, % vehicle control” value with Swiss Webster male mice [8] and in the data set on Swiss Webster male mice [2] (setting [17]) were 24.7±7.8% and 36.7±9.2%, respectively. Moreover, the values for the immobility versus vehicle entry in the data set on Swiss Webster male mice [8] (10 mg/kg), with Swiss Webster male mice [9] and with Swiss Webster male mice [2] (setting [19]) were “equally effective; also recorded: significant overall reduction in immobility”, “differed significantly from vehicle” and “only 6FNE was effective; also recorded: dose-dependently reduced immobility”, respectively. In addition, the agonist efficacy entry in the data set on brain α-adrenoceptors is recorded as “only known selective full agonist”. The “climbing duration, overall effect” value in the data set with Swiss Webster male mice [9] (ivt. 6FNE dose-response, one-way ANOVA) was “failed to show statistical significance”. The sedation result with Swiss Webster male mice [10] is reported as “no sedative effect”. The “distance swum, % vehicle control” value with Swiss Webster male mice [2] (setting [17]) is on record as 193.4±22.8%. The “distance swum versus vehicle” value in the data set on Swiss Webster male mice [2] (setting [18]) is “borderline increase in distance swum”. For the same compound, the “antidepressant response compared with ivt PE” value in the data set on Swiss Webster male mice [2] (single ivt. infusion 0, 1, 3, 10 nmoles, Example 4, expected) is “more rapid or greater antidepressant response than PE”.
Consider `c1ccc(C2CC2)c(OCC2=NCCN2)c1` [cirazoline], for which the antidepressant effect result in the data set with mice [11] is recorded as “significant antidepressant effects in the forced swim test”. Moreover, the “home cage exploration / behavioral inhibition after handling and injection stress” value in the data set with handling-stressed mice was “not effective in reducing behavioral inhibition”. Besides, the agonist efficacy entry in the data set on brain α-adrenoceptors is given as “partial agonists”. The “anxiety measured by behavioral inhibition” value in the data set on mice [12] and in the data set on mice [13] was “failed to affect anxiety” each time.
As to `Cc1cccc([C@H](C)c2cnc[nH]2)c1C` [dexmedetomidine], the “affinity for respective receptor” value in the data set on α2-adrenoceptors [14] is given as “low nanomolar affinities”. Moreover, the immobility versus vehicle result in the data set on Swiss Webster male mice [8] (10 mg/kg) is recorded as “equally effective”; in the data set on Swiss Webster male mice [8] (listed as DEX, 10 mg/kg), “significant dose-dependent decrease in immobility”; in the data set with Swiss Webster male mice [2] (setting [19]) it was “only 6FNE was effective”; in the data set on Swiss Webster male mice [2] (5th swim, DMI subacute i.p. 10 mg/kg, listed as DEX, 10 mg/kg), “failed to have an overall significant effect on immobility”. Besides, the “distance swum versus vehicle” value with Swiss Webster male mice [2] (setting [18]) is “failed to have an overall significant effect”. In the data set with Swiss Webster male mice [2] (DEX 0.04 nmoles ivt.), the “immobility at single dose” value is “borderline significant reduction in immobility”.
`CCC1(c2cnc[nH]2)Cc2ccccc2C1` [atipamezole]: the “blockade of sedative and hypothermic effects of a low dose of dexmedetomidine” value with α2-adrenoceptors [15] was “approximately 70%”. Besides, the “affinity for respective receptor” value in the data set with α2-adrenoceptors [14] is reported as “low nanomolar affinities”. In addition, the “effect of coinfused antagonist on anti-immobility effect of 6FNE” value in the data set with Swiss Webster male mice [8] (6FNE 3 nmoles + antagonist 1 nmole ivt.) is “totally abolished the effect of 6FNE”. In addition, the “effect of antagonist alone on immobility (antagonist+vehicle versus vehicle-only)” value with Swiss Webster male mice [8] (antagonist 1 nmole ivt.) is listed as “had no effect in this group”. In the data set on Swiss Webster male mice [2], the “overall effect of antagonist pretreatment on distance swum” value is given as “no significant overall action” and the “overall effect of antagonist pretreatment on immobility” value was “no significant overall effect”.
With `CNCCCN1c2ccccc2CCc2ccccc21` [DMI, desmethylimipramine], the “anorexia / sucrose intake after subacute antidepressant” value with Swiss Webster male mice [5] (subacute i.p. DMI) was “anorexia and markedly reduced sucrose intakes”. Besides, the “immobility, % vehicle control” value with Swiss Webster male mice [8] is on record as 64.7±20.7%; in the data set on Swiss Webster male mice [2] (setting [17]), 94.8±7.1%. Further, the immobility versus vehicle result in the data set with Swiss Webster male mice [8] is “significantly reduced immobility”; in the data set with Swiss Webster male mice [9] it was “significant reduction in immobility”; with Swiss Webster male mice [2] (setting [18]), “failed to affect immobility or distance swum”. Besides, the “distance swum versus vehicle” value in the data set with Swiss Webster male mice [2] (setting [18]) is reported as “failed to affect immobility or distance swum”. For the same compound, the “effect in repeated open-space swim test” value in the data set with Swiss Webster male mice [2] (acute i.p., dp6FNE 1, 3, 10 mg/kg with prazosin 0.2 mg/kg, DMI 10 mg/kg, FIG. 5) was “complete lack of effect”. Moreover, in the data set on Swiss Webster male mice [2] (single acute i.p. dose 15 min prior, FIG. 14), the “immobility or distance swum versus vehicle, panel of currently available antidepressants” value is on record as “dp6FNE/prazosin (1 mg/kg) was the only agent that either significantly reduced immobility”.

The record behind these values is patent US9023788B2, “Methods compounds and pharmaceutical compositions for treating anxiety and mood disorders” (New York University, priority 2010, dated 2015).
